± gives the expanded uncertainty stated by the source.
Conditions: 101.33 kPa, Liquid; for speed of sound: Sing-around technique in a fixed-path interferometer

Row | mass density (293.15 K) | speed of sound (293.15 K) | mass density (298.15 K) | speed of sound (298.15 K) | mass density (303.15 K) | speed of sound (303.15 K) | SMILES
1 | 809.644 ± 0.46 kg/m3 | 1256.7 ± 0.82 m/s | 805.842 ± 0.47 kg/m3 | 1239.2 ± 0.81 m/s | 801.995 ± 0.47 kg/m3 | 1222.7 ± 0.81 m/s | CCCCO [butan-1-ol]
2 |  | 1320.3 ± 1.2 m/s |  | 1303 ± 1.2 m/s |  | 1286.3 ± 1.2 m/s | CCCCCCO [hexan-1-ol]
3 | 814.738 ± 0.76 kg/m3 | 1292.5 ± 1.2 m/s | 811.067 ± 0.77 kg/m3 | 1275.1 ± 1.2 m/s | 807.366 ± 0.78 kg/m3 | 1258.5 ± 1.2 m/s | CCCCCO [pentan-1-ol]
